“Also recorded” adds a separate entry of the source. Like-named read-outs stand apart in the source and are kept apart here.
Key:
[1] = test system: HIV reverse transcriptase; test: HIV reverse transcriptase activity; assay type: biochemical, HIV (HTLV-IIIB); conditions: for Percent Inhibition of HIV reverse transcriptase / Reverse Transcriptase Activity: 200 uM; for Reverse Transcriptase Activity: control 187×10^3 cpm (reactions 1-4), 273×10^3 cpm (reactions 5-13)
Method: HIV reverse transcriptase (RNA-dependent DNA nucleotidyl-transferase) activity was assayed by a modification of the procedure of Poiesz et al. (Poiesz, B. J., Ruscetti , F. W., Gazdar, A. F., Bunn, P. S., Minna, J. D., and Gallo, R. C., Proc. Natl. Acad. Sci. U.S.A. 77: 7415-7419 (1980)).
Cultured H-9 cells are grown at 10^6 cells/ml in RPMI-1640 medium and 20% heat-inactivated fetal calf serum. Cell suspensions are centrifuged (1000×g, 10 min.) and the supernatant is removed. Virus particles are precipitated from this cell-free supernatant to which 0.3 ml of 4M NaCl and 3.6 ml of 30% (weight/volume) polyethylene glycol are added. The suspension is placed on ice for 2 hr following centrifugation at 15,000×g for 30 min at 0° C. The precipitate is resuspended in 200 microliters of 50% glycerol (vol./vol.)/25 mM Tris-HCl (pH 7.5)/5 mM dithiothreitol/50 mM KCl/0.025% Triton X-100. Virus particles are lysed by the addition of 100 microliters of 0.9% Triton X-100/1.5M KCl. Reverse transcriptase assays are performed at 37° C. for 1 hr with 10 microliters of the lysed virus solution in a final reaction volume of 100 microliters containing: 40 mM Tris-HCl (pH 7.8), 4 mM dithiothreitol, 45 mM KCl and 2.5 micrograms of template primer [poly(A)-dT15, 0.5 micrograms/microliter] (with a signal Mg^++ concentration of 10 mM). At this time, 10 microliters of the 2',5'-phosphorothioate oligoadenylate is added to a final concentration of 200 micromolar. Reaction mixtures also contain 4 micromoles of [^3 H]dTTP. Reactions are stopped by the addition of cold 5% trichloroacetic acid and filtered through nitrocellulose discs. The discs are dried and the radioactivity bound to the discs is determined. Reverse transcriptase activity is expressed as the percent relative to a control.
The compounds were assayed in the above manner in two sets, each set having a separate set of controls. The compounds of reactions 1-4 were assayed against control #1, which was 187×10^3 cpm. The compounds used in reactions 5-13 were assayed against control #2, which was 273×10^3 cpm.

RNase L [2] = test: rRNA cleavage assay using L929 cell extracts (28S and 18S rRNA); assay type: biochemical, mouse; conditions: for concentration at which RNase L was activated to cleave 28S and 18S rRNA: L929 cell extracts, '>' = no activation at that concentration
Method: Activation of RNase L by 2',5'-phosphorothioate adenylate trimer cores and their 5'-monophosphates was also measured in an rRNA cleavage assay using L929 cell extracts.
The corresponding 5'-monophosphates pARp ARp A, pASp ARp A (at 10^-8 M) and pARp ASp A (at 10^-7 M) activated RNase L to cleave 28S and 18S rRNA.

[3] = test system: tobacco mosaic virus (TMV); test: TMV replication in intact Nicotiana glutinosa plants (local lesions); assay type: in vivo; conditions: for Percent TMV Inhibition: 2 × 10^-5 M in infecting solution, 48 hr after infection, half-leaves of N. glutinosa
Method: Carborundum (400 mesh) was sprinkled lightly onto leaves. Solutions containing 0.2 micrograms per ml of TMV and 2×10^-5 M 2',5'-phosphorothioate oligoadenylate in phosphate buffer were applied onto half-leaves of N. glutinosa with either a gloved finger or with a pipettor. The remaining half-leaves were controls (inoculated with the buffer solution containing TMV, but no active compound). The infection was allowed to proceed 48 h under continuous illumination of about 1500 Lx at which time local virus lesions appeared. Inhibition of TMV replication was calculated as the percent of local lesions produced in 2',5'-phosphorothioate oligoadenylate-treated half-leaves compared to control half-leaves.
^4 Inhibition of TMV replication was detected 48 hr after infection
and was calculated as the percent of local lesions produced in treated
halfleaves of N. glutinosa compared to control halfleaves.

RNase L [4] = test: Activation or inhibition of RNase L, general statements without assay named; assay type: biochemical
phosphodiesterases = test: Metabolic stability, general statements; assay type: in vitro ADME
[5] = test system: 2'-phosphodiesterase (2'-PDE), L cell extract; test: Hydrolysis by 2'-phosphodiesterase in L cell extract; assay type: in vitro ADME
From the text: The four 2,5-phosphorothioate adenylate trimer cores were further characterized by hydrolysis with the enzyme 2'-phosphodiesterase ("2'-PDE"), an exoribonuclease found in L cell extract The enzyme cleaves from the 2'/3'-terminus.
(§1) The metabolic stability of the 2,5'-phosphorothioate dimer and trimer cores is markedly greater than authentic 2-5A. The rate of hydrolysis of the trimer cores by the 3'-exonuclease SVPD is, in order of decreasing stability: ASp ARp A>ARp ARp A>>>A3. […] The 3'->'5'direction of stepwise cleavage by SVPD is blocked by an Sp configuration, preventing cleavage of the upstream adjacent phosphorothioate linkage. […] With both SVPD and 2'-PDE, the dimer cores (either ARp A or ASp A) accumulate following hydrolysis of the ARp ARp A, ASp ARp A and ARp ASp A trimer cores. Hydrolysis of the 2-5A molecule by SVPD and 2'-PDE proceeds from the 2'/3'-terminus. Therefore, introduction of the phosphorothioate group into the trimer core results in the accumulation of the ARp A or ASp A dimer cores from the 5'-terminus and the accumulation of AMPS from the 2'/3'-terminus (Table 3). With authentic A3, there is no detectable accumulation of A2 following hydrolysis by SVPD or 2'-PDE.

SVPD = test: Hydrolysis by SVPD (snake venom phosphodiesterase); assay type: in vitro ADME
Method: It is known that the enzyme SVPD preferentially cleaves Rp-3',5'- or 2',5'-phosphorothioate linkages from the 2'/3'-terminus. Nelson et al, J. Org. Chem. 49:2314-2317 (1984); Eppstein et al, J. Biol. Chem. 261:5999-6003 (1986); Lee et al, Biochemistry 24:551-555 (1985). SVPD hydrolysis of the chemically synthesized dimer core ARp A yielded adenosine and AMPS in a molar ratio of 1:1, respectively; the half-life was 3 hours (Table 3).
as §1

serum phosphodiesterases = test: Hydrolysis by serum phosphodiesterases
RNase L [6] = test: Core-cellulose assay: activation of partially-purified RNase L to hydrolyze poly(U)-3'-[32P]pCp; assay type: biochemical, mouse
Method: FIG. 1B represents the results of a core-cellulose assay indicating the ability of the 2',5'-phosphorothioate adenylate trimer cores and 5'-monophosphates to activate partially-purified RNase L from L929 cell extracts to hydrolyze the substrate polY(U)-3'-[^32 P]pCp. Activation of RNase L was determined by conversion of poly (U )-3'-[^32 P]pCp to acid-soluble fragments. 100% represents 30,000 cpm of labelled poly(U)-3'-[^32 P]pCp bound to glass fiber filters. The curves are labelled in the same manner as FIG. 1A.
The 2',5'-phosphorothioate cores, with one exception, have the correct stereoconfiguration to activate RNase L. The activation of partially-purified RNase L by the 2',5'-phosphorothioates was measured according to the core-cellulose assay of Silverman, Analyt. Biochem. 144:450-460 (1985) which relies on hydrolysis of the substrate poly(U)-3-[^32 P]pCp. […] (FIG. 1B) The order of activation of the trimer cores and the corresponding 5'-monophosphates is: RpRp>SpRp>RpSp (FIG. 1B).

Row | Compound | Percent Inhibition of HIV reverse transcriptase [1] | Reverse Transcriptase Activity [1] | concentration at which RNase L was activated to cleave 28S and 18S rRNA (RNase L [2]) | Percent TMV Inhibition [3] | effect on RNase L activation (result in words) (RNase L [4]) | hydrolysis by L cell extract / 2'-PDE (result in words) [5] | half life, hydrolysis by SVPD (SVPD) | hydrolysis by serum phosphodiesterases (result in words) (serum phosphodiesterases) | hydrolysis by SVPD (result in words) (SVPD) | also measured
1 | 5'-O-Phosphoryl-(Rp)-thioadenylyl-(2'-5')-(Sp)-thioadenylyl-(2'-5')-adenosine [pARp ASp A] | 25% | 206 10^3 cpm | 10^-7 M | 15% | relatively metabolically stable and highly efficient activator for RNase L | – | – | – | – | –
2 | 5'-O-Phosphoryl-(Sp)-thioadenylyl-(2'-5')-(Rp)-thioadenylyl-(2'-5')-adenosine [pASp ARp A] | 16% | 230 10^3 cpm | 10^-8 M | 23% | – | – | – | – | – | –
3 | 5'-O-Phosphoryl-(Sp)-thioadenylyl-(2'-5')-(Sp)-thioadenylyl-(2'-5')-adenosine [pASp ASp A] | 15% | 232 10^3 cpm | > 10^-5 M | 40% | selectively inhibits activation of RNase L at physiological concentrations; also recorded: metabolically stable inhibitor of RNase L; also recorded: most effective inhibitor of RNase L reported to date | – | – | – | – | inhibition of HIV reverse transcriptase (result in words) [1]: inhibit HIV reverse transcriptase activity and tobacco mosaic virus replication; inhibition of TMV replication (result in words) ([3]; in vivo): inhibit HIV reverse transcriptase activity and tobacco mosaic virus replication; metabolic stability (result in words) (phosphodiesterases): metabolically stable to specific and non-specific phosphodiesterases
4 | Nc1ncnc2c1ncn2[C@@H]1O[C@H](CO[P@@](O)(=S)O[C@@H]2[C@H](O)[C@@H](CO)O[C@H]2n2cnc3c(N)ncnc32)[C@@H](O)[C@H]1O [Compound 6A, P-Thioadenylyl-(2'-5')-adenosine] | – | – | – | – | – | not cleaved | 3 h | not cleaved | – | hydrolysis by L cell extract / 2'-PDE (result in words) ([5]; listed as ARp A): not substrates for 2'-PDE
5 | Nc1ncnc2c1ncn2[C@@H]1O[C@H](CO[P@](O)(=S)O[C@@H]2[C@H](O)[C@@H](CO)O[C@H]2n2cnc3c(N)ncnc32)[C@@H](O)[C@H]1O [Compound 6B, P-Thioadenylyl-(2'-5')-adenosine] | – | – | – | – | – | not cleaved | – | not cleaved | not cleaved | hydrolysis by L cell extract / 2'-PDE (result in words) ([5]; listed as ASp A): not substrates for 2'-PDE; hydrolysis by SVPD (result in words) (SVPD; listed as ASp A): not a substrate for SVPD
6 | (Rp)-P-Thioadenylyl-(2'-5')-(Rp)-P-thioadenylyl-(2'-5')-adenosine [Compound 9A] | 18% | 224 10^3 cpm | 10^-5 M | 57% | – | – | 1 h | – | hydrolysis by SVPD to yield AMPS plus ARp A | half life, hydrolysis by L cell extract [5]: 18 h; half life, hydrolysis by serum phosphodiesterases (serum phosphodiesterases): 8 h
7 | (Rp)-P-thioadenylyl-(2'-5')-(Sp)-P-thioadenylyl-(2'-5')-(Sp)-P-thioadenylyl-(2'-5')-adenosine [ARp ASp ASp A] | 46% | 147 10^3 cpm | – | 80% | – | – | – | – | – | –
8 | (Sp)-P-Thioadenylyl-(2'-5')-(Rp)-P-thioadenylyl-(2'-5')-adenosine [Compound 9B] | 6% | 258 10^3 cpm | 10^-5 M | 33% | – | – | 8 h | not cleaved | yielded ASp A and AMPS | half life, hydrolysis by L cell extract [5]: 15 h
9 | (Sp)-P-Thioadenylyl-(2'-5')-(Sp)-P-thioadenylyl-(2'-5')-adenosine [Compound 10B] | 20% | 219 10^3 cpm | > 10^-4 M | 80% | selectively inactivates RNase L | not cleaved | – | not cleaved | not substrates for SVPD; also recorded: not cleaved | inhibition of RNase L activation, core-cellulose assay (result in words) (RNase L [6]): inhibit RNase L activation; concentration up to which RNase L was not activated, core-cellulose assay (RNase L [6]; poly(U)-3'-[32P]pCp substrate, not activated at the concentration): > 10^-3 M; hydrolysis by L cell extract / 2'-PDE (result in words) ([5]; listed as ASp ASp A): not cleaved by L-cell extract; inhibition of RNase L activation, rRNA cleavage assay (result in words) (RNase L [2]): inhibit RNase L activation; hydrolysis by SVPD (result in words) (SVPD; listed as ASp ASp A): not substrates of SVPD
10 | (Sp)-P-thioadenylyl-(2'-5')-(Sp)-P-thioadenylyl-(2'-5')-(Sp)-P-thioadenylyl-(2'-5')-adenosine [ASp ASp ASp A] | 45% | 149 10^3 cpm | – | 70% | – | – | – | – | – | –
